Source: patent publication US11369614B2, “Telodendrimers with riboflavin moieties and nanocarriers and methods of making and using same” (priority 2017, dated 2022)

Tested on: SKOV3 xenograft tumor
Assay: In vivo and ex vivo tumor targeting by fluorescence imaging
Design: species or system nude mice
Conditions: i.v.
Protocol: Raji lymphoma, MDA-MB-231, and SKOV3 xenograft tumor bearing mice model were established by subcutaneous injection of 1×10^7 cells in 100 μL of Matrigel and PBS (1:1 v/v) at the right or left flank of female nude mice aged 4-6 weeks. […] Then the DiD-DOX co-loaded Rf-containing nanoformulations were filtered with 0.22 am sterile filter. Free DiD in PBS was used as the control group. All the formulations were intravenously injected through tail vein. The mice were anaesthetized and imaged by IVIS® (In vivo Imaging System) 200 (perkinElmer) at 0.5, 1, 2, 4, 8, 24, 48, 72 h different time points with the ex/em 625/700 nm. Finally, the mice were euthanized, tumor and all the major organs were taken out for ex vivo imaging. Living Image software (Caliper Life Sciences) were used to define and measure the fluorescence intensity in the place of interest.
Mice were euthanized in the following day. […] The nuclei were stained by DAPI.

## CCCCCCCCCCCCCCCCCCN1/C(=C/C=C/C=C/C2=[N+](CCCCCCCCCCCCCCCCCC)c3ccccc3C2(C)C)C(C)(C)c2ccccc21.[O-][Cl+3]([O-])([O-])[O-] [free DiD, 1,1′-dioctadecyl-3,3,3,3′,3′-tetramethylindodicarbocyanine perchlorate]
  tumor accumulation (in vivo imaging): No specific tumor accumulation
